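Five concentrations, 48 hours, 96-well plates. Here, GI50 denotes the concentration required for 50% inhibition of growth. Definition used: TGI = concentration required for complete inhibition of growth.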
Experiments:
Assay in all cases: DTP human tumour cell line panel, 48 h
KM12 colon = test system: KM12 colon
RXF 393 renal = test system: RXF 393 renal
NCI/ADR-RES ovarian = test system: NCI/ADR-RES ovarian
A498 renal = test system: A498 renal
UACC-62 melanoma = test system: UACC-62 melanoma
786-0 renal = test system: 786-0 renal
MDA-MB-435 = test system: MDA-MB-435
NCI-H226 lung = test system: NCI-H226 lung
SR leukemia = test system: SR leukemia
SK-MEL-28 melanoma = test system: SK-MEL-28 melanoma
SN12C renal = test system: SN12C renal
BT-549 breast = test system: BT-549 breast
MCF7 breast = test system: MCF7 breast
NCI-H522 lung = test system: NCI-H522 lung
OVCAR-8 ovarian = test system: OVCAR-8 ovarian
RPMI-8226 leukemia = test system: RPMI-8226 leukemia
OVCAR-5 ovarian = test system: OVCAR-5 ovarian
NCI-H23 lung = test system: NCI-H23 lung
M14 melanoma = test system: M14 melanoma
SW-620 colon = test system: SW-620 colon
UO-31 renal = test system: UO-31 renal
MALME-3M melanoma = test system: MALME-3M melanoma
PC-3 prostate = test system: PC-3 prostate
HL-60(TB) leukemia = test system: HL-60(TB) leukemia
SK-OV-3 ovarian = test system: SK-OV-3 ovarian
MOLT-4 leukemia = test system: MOLT-4 leukemia
SF-295 CNS = test system: SF-295 CNS
CCRF-CEM leukemia = test system: CCRF-CEM leukemia

With `O=C(NCCCNc1cc(-c2cn(-c3ccccc3)nc2-c2cccc(O)c2)ccn1)Nc1ccc(F)cc1` the GI50 (KM12 colon) was 2.61 µM, the TGI (KM12 colon) was 5.79 µM and the GI50 (RXF 393 renal) was 0.966 µM. The TGI (RXF 393 renal) was 4.85 µM, the GI50 (NCI/ADR-RES ovarian) was 3.51 µM and the TGI (NCI/ADR-RES ovarian) was 12.5 µM. It also gave a GI50 (A498 renal) of 1.21 µM, a TGI (A498 renal) of 4.96 µM and a GI50 (UACC-62 melanoma) of 3.14 µM. The TGI (UACC-62 melanoma) was 6.6 µM, the GI50 (786-0 renal) was 0.855 µM and the TGI (786-0 renal) was 3.61 µM. For the same molecule, the GI50 (MDA-MB-435) was 1.66 µM, the TGI (MDA-MB-435) was 5.05 µM and the GI50 (NCI-H226 lung) was 3.39 µM. The TGI (NCI-H226 lung) was 8.91 µM, the GI50 (SR leukemia) was 1.51 µM and the TGI (SR leukemia) was 13.8 µM. It also gave a GI50 (SK-MEL-28 melanoma) of 2.54 µM, a TGI (SK-MEL-28 melanoma) of 5.64 µM and a GI50 (SN12C renal) of 2.79 µM. For the same molecule, the TGI (SN12C renal) was 8.37 µM, the GI50 (BT-549 breast) was 2.18 µM and the TGI (BT-549 breast) was 11.6 µM. The GI50 (MCF7 breast) was 2.32 µM, the TGI (MCF7 breast) was 6.04 µM and the GI50 (NCI-H522 lung) was 4.03 µM. The TGI (NCI-H522 lung) was 9.49 µM, the GI50 (OVCAR-8 ovarian) was 2.13 µM and the TGI (OVCAR-8 ovarian) was 9.26 µM. It also gave a GI50 (RPMI-8226 leukemia) of 0.865 µM, a TGI (RPMI-8226 leukemia) of 5.47 µM and a GI50 (OVCAR-5 ovarian) of 3.37 µM. The TGI (OVCAR-5 ovarian) was 9.12 µM, the GI50 (NCI-H23 lung) was 3.11 µM and the TGI (NCI-H23 lung) was 7.65 µM. It also gave a GI50 (M14 melanoma) of 1.57 µM, a TGI (M14 melanoma) of 5.85 µM and a GI50 (SW-620 colon) of 3.04 µM. It also gave a TGI (SW-620 colon) of 6.73 µM, a GI50 (UO-31 renal) of 1.58 µM and a TGI (UO-31 renal) of 9.7 µM. It also gave a GI50 (MALME-3M melanoma) of 0.826 µM, a TGI (MALME-3M melanoma) of 3.42 µM and a GI50 (PC-3 prostate) of 1.33 µM. The TGI (PC-3 prostate) was 8.92 µM, the GI50 (HL-60(TB) leukemia) was 2.15 µM and the TGI (HL-60(TB) leukemia) was 14.2 µM. For the same molecule, the GI50 (SK-OV-3 ovarian) was 3.12 µM, the TGI (SK-OV-3 ovarian) was 10.8 µM and the GI50 (MOLT-4 leukemia) was 1.25 µM. The TGI (MOLT-4 leukemia) was 15.6 µM, the GI50 (SF-295 CNS) was 1.38 µM and the TGI (SF-295 CNS) was 4.84 µM. The GI50 (CCRF-CEM leukemia) was 1.42 µM and the TGI (CCRF-CEM leukemia) was 25 µM.
